# In patent US12084430B2, “Tricyclic urea compounds as JAK2 V617F inhibitors” (Incyte Corporation, priority 2022, dated 2024):
# What was measured:
# [1] = test system: FLT3; test: FLT3 enzymatic assay; format: biochemical
# Description: Example C. FLT3 Enzymatic Assay
# (§1) The kinase assays were carried out at room temperature in assay buffer (HEPES 50 mM, pH 7.0, NaN3 0.02%, BSA 0.01%, Orthovanadate 0.1 mM, DTT 1 mM, MgCl2 10 mM) in a final volume of 10 μL. Testing compounds were prepared by serial dilution in DMSO and transferred to the plate wells by ECHO liquid handler (Labcyte) with 0.5% DMSO in the final assay. […]. Reactions were initiated by the addition of 5 μL ATP in assay buffer. The final 10 μL kinase reaction consists of 0.011 nM FLT3, 1 mM ATP, 500 nM TK Substrate-biotin and SEB reagent 62.5 nM in assay buffer. […] The plates were then sealed and centrifuged at 1800 rpm for 2 minutes. After 60 minutes incubation at room temperature, the product activity was determined by measuring the fluorescence at 620 nm and 665 nm on Pherastar microplate reader (BMG Labtech). A ratio is calculated (665/620 nm) for each well. Wells with DMSO only were served as the positive controls and wells containing no ATP were used as negative controls. IC50 determination was performed by fitting the curve of percent control activity versus the log of the compound concentration using the GraphPad Prism 7.0 software.
# [2] = target: KIT (Homo sapiens, UniProt P10721); test: KIT enzymatic assay; format: biochemical; details: 1 mM ATP
# Chain of KIT (Homo sapiens, UniProt P10721) (P10721 26-976, species assumed): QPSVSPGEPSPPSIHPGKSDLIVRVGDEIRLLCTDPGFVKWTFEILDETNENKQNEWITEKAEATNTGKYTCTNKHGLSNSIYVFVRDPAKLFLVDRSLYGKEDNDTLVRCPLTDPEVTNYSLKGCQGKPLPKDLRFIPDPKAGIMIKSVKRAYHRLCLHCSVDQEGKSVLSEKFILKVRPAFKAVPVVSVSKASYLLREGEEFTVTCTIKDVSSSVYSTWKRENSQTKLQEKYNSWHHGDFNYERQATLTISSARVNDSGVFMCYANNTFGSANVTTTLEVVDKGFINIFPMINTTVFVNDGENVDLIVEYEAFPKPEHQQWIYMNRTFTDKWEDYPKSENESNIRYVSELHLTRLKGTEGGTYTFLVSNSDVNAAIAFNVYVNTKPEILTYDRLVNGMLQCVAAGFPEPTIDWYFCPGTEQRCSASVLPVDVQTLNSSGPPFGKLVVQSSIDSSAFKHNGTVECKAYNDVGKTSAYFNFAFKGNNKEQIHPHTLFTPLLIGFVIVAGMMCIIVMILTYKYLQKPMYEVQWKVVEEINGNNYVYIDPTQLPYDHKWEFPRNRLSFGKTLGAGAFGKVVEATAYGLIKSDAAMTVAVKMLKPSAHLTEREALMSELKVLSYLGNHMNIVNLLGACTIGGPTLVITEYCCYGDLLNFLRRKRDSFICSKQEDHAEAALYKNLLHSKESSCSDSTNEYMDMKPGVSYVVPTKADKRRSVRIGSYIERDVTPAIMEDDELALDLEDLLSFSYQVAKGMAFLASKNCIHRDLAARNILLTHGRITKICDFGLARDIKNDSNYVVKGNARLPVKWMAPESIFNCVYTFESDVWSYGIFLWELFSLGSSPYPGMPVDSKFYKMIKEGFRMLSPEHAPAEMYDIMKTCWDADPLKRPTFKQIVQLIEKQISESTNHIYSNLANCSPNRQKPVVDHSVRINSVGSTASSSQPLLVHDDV
# Description: (§2) Example D. KIT Enzymatic Assay
# as §1, with “0.12” for “0.011”, “KIT,” for “FLT3,”
# [3] = test system: KIT; test: KIT enzymatic assay; format: biochemical
# Description: as §2
# as §1, with “0.12” for “0.011”, “KIT,” for “FLT3,”
# [4] = test system: pSTAT5 signaling in SET-2 cells in whole blood; test: pSTAT5 SET-2 whole blood MSD assay; format: cell-based; details: Homo sapiens, pSTAT5, 2 hour, read-out: SET2 WB IC50
# Description: Example F. pSTAT5 SET-2 Whole Blood MSD Assay
# SET-2 cells shipped from ABS, RPMI1640 medium, Fetal Bovine Serum from Gibco, Phospho-STAT5a,b Whole Cell Lysate Kit from Mesoscale, Retronectin (Recombinant Human Fibronectin Fragment) from TaKaRa, 96 well cell culture plate flat bottom from Corning, lysis buffer from Cell Signaling Technology, and sterile PBS from Gibco. Whole Blood from by BioIVT.
# SET-2 cells were cultured in RPMI media with 20% FBS at 37° C. humidified incubator supplied with 5% CO2. On the day of the assay, 40 uL per well of diluted retronectin working solution was added to sterile 96-well clear flat bottom tissue culture plates (1:200 dilution of retronectin in sterile PBS) and incubated at 37 C for 1 hour. After 1 hour, the retronectin working solution was aspirated and SET-2 cells were seeded at 100,000/well in RPMI+20% FBS. Cells were incubated overnight at 37° C. and 5% CO2. The next day, the medium was removed and 40 μL of diluted compounds in serum-free RPMI and whole blood was added to the cells for a 2 hour incubation at 37° C. and 5% CO2. The compound starting concentration is 20 μM and 2.5 fold serial diluted down to 0.21 nM. The whole blood and compound mixture was then aspirated off using the BlueCat plate washer and washed 1× with PBS. Cells were lysed by adding 40 μL of 3× complete lysis buffer and shaken at room temperature for 45-60 minutes (complete lysis buffer consists of Cell Signaling Technology lysis buffer diluted to 3× and supplemented with Mesoscale's protease inhibitor, phosphatase I inhibitor, and phosphatase II inhibitor). The pSTAT5 MSD plates were blocked by adding 150 μL of Blocker A solution per well to the MSD plates and incubated at room temperature with shaking at 400 rpm for one hour or longer. After blocking, plates were washed 3× with 300 μL/well of IX Tris Wash Buffer. After lysis, added 25 μL per well of lysed sample was added to MSD plate and incubated with shaking at 4° C. wrapped in foil overnight. The next day, plates were washed again and 25 μL/well of diluted 1× Detection Antibody Solution, wrapped in foil, and incubated at room temperature with shaking at 400 rpm for 1 hour. Plates were then washed again and lastly, 150 μL/well of 1× Read Buffer T was added to all wells. Plates were analyzed on MSD Discovery within 5 minutes. […] Data analysis was performed in GraphPad Prism using a 4-parameter fit and data was reported as Average±SD.
SMILES,Selectivity FLT3/JH2 V617F [1],IC50 [2] [nM],Selectivity KIT/JH2 V617F [3],IC50 [4] [nM]
"COC(=O)N[C@@H]1CC[C@@H](n2c(=O)n(C)c3cnc4[nH]c(-c5cn(C)nc5OC)c(-c5cccc(F)c5)c4c32)C1 [Example 3, Methyl ((1R,3R)-3-(8-(3-fluorophenyl)-7-(3-methoxy-1-methyl-1H-pyrazol-4-yl)-3-methyl-2-oxo-3,6-dihydroimidazo[4,5-d]pyrrolo[2,3-b]pyridin-1(2H)-yl)cyclopentyl)carbamate]",**** (selectivity of >1750-fold to ≤5000-fold),1250 to 2500,**** (selectivity of >1750-fold to ≤5000-fold),5000 to 7500
"COC(=O)N[C@@H]1CC[C@@H](n2c(=O)n(C)c3cnc4[nH]c(-c5cn(C)nc5OC)c(-c5ccc(F)cc5)c4c32)C1 [Example 1, Methyl ((1R,3R)-3-(8-(4-fluorophenyl)-7-(3-methoxy-1-methyl-1H-pyrazol-4-yl)-3-methyl-2-oxo-3,6-dihydroimidazo[4,5-d]pyrrolo[2,3-b]pyridin-1(2H)-yl)cyclopentyl)carbamate]",**** (selectivity of >1750-fold to ≤5000-fold),> 2500,***** (selectivity of >5000-fold to ≤12500-fold),2500 to 5000
"[2H]C([2H])([2H])n1ncc2cc(-c3c(-c4cn(C)nc4OC)[nH]c4ncc5c(c34)n([C@@H]3CC[C@@H](NC(=O)OC)C3)c(=O)n5C)ccc21 [Example 5, Methyl ((1R,3R)-3-(7-(3-methoxy-1-methyl-1H-pyrazol-4-yl)-3-methyl-8-(1-(methyl-d3)-1H-indazol-5-yl)-2-oxo-3,6-dihydroimidazo[4,5-d]pyrrolo[2,3-b]pyridin-1(2H)-yl)cyclopentyl)carbamate]",***** (selectivity of >5000-fold to ≤12500-fold),> 2500,****** (selectivity of >12500-fold),≤ 2500
"[2H]C([2H])([2H])n1cc(-c2[nH]c3ncc4c(c3c2-c2ccc3c(c2)COC3(C)C)n([C@@H]2CC[C@@H](NC(=O)OC)C2)c(=O)n4C)c(F)n1 [Example 11, Methyl ((1R,3R)-3-(8-(1,1-dimethyl-1,3-dihydroisobenzofuran-5-yl)-7-(3-fluoro-1-(methyl-d3)-1H-pyrazol-4-yl)-3-methyl-2-oxo-3,6-dihydroimidazo[4,5-d]pyrrolo[2,3-b]pyridin-1(2H)-yl)cyclopentyl)carbamate]",****** (selectivity of >12500-fold),> 2500,****** (selectivity of >12500-fold),≤ 2500
"[2H]C([2H])([2H])Oc1ccc(-c2c(-c3cn(C([2H])([2H])[2H])nc3F)[nH]c3ncc4c(c23)n([C@@H]2CC[C@@H](NC(=O)OC)C2)c(=O)n4C([2H])([2H])[2H])cc1 [Example 9, Methyl ((1R,3R)-3-(7-(3-fluoro-1-(methyl-d3)-1H-pyrazol-4-yl)-8-(4-(methoxy-d3)phenyl)-3-(methyl-d3)-2-oxo-3,6-dihydroimidazo[4,5-d]pyrrolo[2,3-b]pyridin-1(2H)-yl)cyclopentyl)carbamate]",***** (selectivity of >5000-fold to ≤12500-fold),250 to 1250,*** (selectivity of >1500-fold to ≤1750-fold),2500 to 5000
"[2H]C([2H])([2H])n1cc(-c2[nH]c3ncc4c(c3c2-c2ccc3c(cnn3C(C)C)c2)n([C@@H]2CC[C@@H](NC(=O)OC)C2)c(=O)n4C)c(F)n1 [Example 16, Methyl ((1R,3R)-3-(7-(3-fluoro-1-(methyl-d3)-1H-pyrazol-4-yl)-8-(1-isopropyl-1H-indazol-5-yl)-3-methyl-2-oxo-3,6-dihydroimidazo[4,5-d]pyrrolo[2,3-b]pyridin-1(2H)-yl)cyclopentyl)carbamate]",***** (selectivity of >5000-fold to ≤12500-fold),1250 to 2500,****** (selectivity of >12500-fold),≤ 2500
"[2H]C([2H])([2H])n1ncc2cc(-c3c(-c4cn(C([2H])([2H])C([2H])([2H])[2H])nc4F)[nH]c4ncc5c(c34)n([C@@H]3CC[C@@H](NC(=O)OC)C3)c(=O)n5C([2H])([2H])[2H])ccc21 [Example 15, Methyl ((1R,3R)-3-(7-(1-(ethyl-d5)-3-fluoro-1H-pyrazol-4-yl)-3-(methyl-d3)-8-(1-(methyl-d3)-1H-indazol-5-yl)-2-oxo-3,6-dihydroimidazo[4,5-d]pyrrolo[2,3-b]pyridin-1(2H)-yl)cyclopentyl)carbamate]",***** (selectivity of >5000-fold to ≤12500-fold),250 to 1250,**** (selectivity of >1750-fold to ≤5000-fold),≤ 2500
"[2H]C([2H])([2H])n1ncc2cc(-c3c(-c4cn(C)nc4OC)[nH]c4ncc5c(c34)n(C3CCOCC3)c(=O)n5C)ccc21 [B, reference compound]",* (selectivity of ≤500-fold),,** (selectivity of >500-fold to ≤1500-fold),> 7500
"[2H]C([2H])([2H])n1cc(-c2[nH]c3ncc4c(c3c2-c2ccc3c(cnn3CC(F)F)c2)n([C@@H]2CC[C@@H](NC(=O)OC)C2)c(=O)n4C)c(F)n1 [Example 18, Methyl ((1R,3R)-3-(8-(1-(2,2-difluoroethyl)-1H-indazol-5-yl)-7-(3-fluoro-1-(methyl-d3)-1H-pyrazol-4-yl)-3-methyl-2-oxo-3,6-dihydroimidazo[4,5-d]pyrrolo[2,3-b]pyridin-1(2H)-yl)cyclopentyl)carbamate]",****** (selectivity of >12500-fold),1250 to 2500,****** (selectivity of >12500-fold),≤ 2500
"COc1nn(C)cc1-c1[nH]c2ncc3c(c2c1-c1ccc2c(cnn2C)c1)n([C@H]1CC[C@@H](CC#N)CC1)c(=O)n3C [E, reference compound]",* (selectivity of ≤500-fold),1250 to 2500,*** (selectivity of >1500-fold to ≤1750-fold),
